This assay deals with ATX (human His-tagged) (Homo sapiens (Human), UniProt Q13822). Description: Human ATX enzyme inhibition assay (fluorescence quenching, MR121 substrate). The format is biochemical. Conditions: 30 nM ATX, 1 μM MR121 substrate, 30° C. An excerpt: Human ATX Enzyme Inhibition Assay
Assay working solutions were made as follows:
On to `Nc1ccc(C(=O)N2CC3(CCN(C(=O)OCc4cc(Cl)cc(Cl)c4)CC3)C2)cc1O` [Example 1.06, 3,5-dichlorobenzyl 2-(4-amino-3-hydroxybenzoyl)-2,7-diazaspiro[3.5]nonane-7-carboxylate], for which the IC50 (as a rule, the concentration needed to halve the response being measured) turned out to be 107 nM.

Compound `O=C(OCc1ccc(OC(F)(F)F)cc1F)N1CC2(CCN(C(=O)C3CCc4[nH]nnc4C3)CC2)C1` (stereo not shown) [Example 12.41, 2-fluoro-4-(trifluoromethoxy)benzyl 7-(4,5,6,7-tetrahydro-1H-benzo[d][1,2,3]triazole-5-carbonyl)-2,7-diazaspiro[3.5]nonane-2-carboxylate] registered an IC50 of 2 nM. This IC50 lies about 54-fold lower than the previous one.

`O=C(NCc1cnn[nH]1)C1CC2(CCN(C(=O)/C=C/c3ccc(OC(F)(F)F)cc3)CC2)C1` [Example 6.8, (E)-N-((1H-1,2,3-triazol-5-yl)methyl)-7-(3-(4-(trifluoromethoxy)phenyl)acryloyl)-7-azaspiro[3.5]nonane-2-carboxamide]: the IC50 was 91 nM.

Take `O=C(OCc1ccc(Cl)nc1)N1CCC2(CC1)CN(C(=O)c1ccc3[nH]nnc3c1)C2` [Example 12.05, (6-chloropyridin-3-yl)methyl 2-(1H-benzo[d][1,2,3]triazole-5-carbonyl)-2,7-diazaspiro[3.5]nonane-7-carboxylate]: half-maximal inhibition (IC50) required 4980 nM.

The compound `O=C(OCc1cc(Cl)cc(Cl)c1)N1CCC2(CC1)CN(S(=O)(=O)c1ccc3[nH]c(=O)oc3c1)C2` [Example 3, 3,5-Dichlorobenzyl 2-(2-oxo-2,3-dihydro-benzo[d]oxazol-6-ylsulfonyl)-2,7-diazaspiro[3.5]nonane-7-carboxylate] had an IC50 of 6 nM.

With `O=C(NCc1c[nH]nn1)N1CC2(CCN(C(=O)OCc3ccc(OC(F)(F)F)cc3)CC2)C1` [Example 14, [4-(Trifluoromethoxy)phenyl]methyl 2-((1H-triazol-4-ylmethyl)carbamoyl)-2,7-diazaspiro[3.5]nonane-7-carboxylate], half-maximal inhibition (IC50) required 23 nM.

Consider `O=C(OCc1cc(Cl)cc(Cl)c1)N1CC2(CCN(C(=O)c3ccc4[nH]c(=O)oc4c3)CC2)C1` [Example 2.2, 7-(2-oxo-2,3-dihydro-benzooxazole-6-carbonyl)-2,7-diaza-spiro[3.5]nonane-2-carboxylic acid 3,5-dichloro-benzyl ester], for which the IC50 stood at 13.7 nM.

Turning to `O=C(NC1CC2(C1)CN(C(=O)CCc1cc(Cl)cc(Cl)c1)C2)c1ccc2[nH]nnc2c1` [Example 1.11, N-(2-(3-(3,5-dichlorophenyl)propanoyl)-2-azaspiro[3.3]heptan-6-yl)-1H-benzo[d][1,2,3]triazole-5-carboxamide], it took 155 nM to reach half-maximal inhibition (IC50).

`O=C(NC1CC2(C1)CN(C(=O)OCc1ccccc1)C2)c1ccc2[nH]nnc2c1` [Example 1.07, 6-[(1H-benzotriazole-5-carbonyl)-amino]-2-aza-spiro[3.3]heptane-2-carboxylic acid benzyl ester]: the IC50 worked out at 4140 nM.

`O=C(NC1CC2(C1)CN(C(=O)OCc1cc(Cl)cc(Cl)c1)C2)c1ccc2[nH]nnc2c1` [Example 1.13, 6-[(1H-benzotriazole-5-carbonyl)-amino]-2-aza-spiro[3.3]heptane-2-carboxylic acid 3,5-dichloro-benzyl ester] gave an IC50 of 5430 nM. This IC50 and that of the compound before are within 1.5-fold of each other.

In turn, `NS(=O)(=O)c1ccc(C(=O)N2CC3(CCN(C(=O)OCc4ccc(OC(F)(F)F)cc4F)CC3)C2)cc1` [Example 1.23, 2-fluoro-4-(trifluoromethoxy)benzyl 2-(4-sulfamoylbenzoyl)-2,7-diazaspiro[3.5]nonane-7-carboxylate] registered a concentration for half-maximal inhibition (IC50) of 1 nM. This IC50 is about 5400-fold lower than that of the compound before.

Turning to `O=C(OCc1cncc(Cl)c1)N1CCC2(CC1)CN(C(=O)c1ccc3[nH]nnc3c1)C2` [Example 12.08, (5-chloropyridin-3-yl)methyl 2-(1H-benzo[d][1,2,3]triazole-5-carbonyl)-2,7-diazaspiro[3.5]nonane-7-carboxylate], inhibition was half-maximal at 3830 nM (IC50).

`O=C(OCc1ccc(F)c(Cl)c1)N1CCC2(CC1)CN(C(=O)c1ccc3[nH]nnc3c1)C2` [Example 12.11, 3-chloro-4-fluorobenzyl 2-(1H-benzo[d][1,2,3]triazole-5-carbonyl)-2,7-diazaspiro[3.5]nonane-7-carboxylate] came in with an IC50 of 168 nM.

These data come from patent US9493486B2, “Diazaspirocycloalkane and azaspirocycloalkane” (Hoffmann-La Roche Inc., priority 2012, dated 2016).
